Measurements reported in ChEMBL document CHEMBL1127233, “Isolation and structure of axinastatin 5 from a republic of comoros marine sponge” (1994).
≈ marks a conversion by molar mass, not a printed value. Peptide text beside a SMILES is read from it.

Experiments:
Assay type in all cases: functional
P388 = experiment: Inhibitory activity against murine P388 leukemia cell line; conditions: Mus musculus, read-out: ED50 (the source's name)
OVCAR-3 = experiment: Growth inhibitory activity against OVCAR-3 human cancer cell line
KM-20L2 = experiment: Growth inhibitory activity against KM20L2 human cancer cell line
NCI-H460 = experiment: Growth inhibitory activity against NCI-H460 human cancer cell line
SK-MEL-5 = experiment: Growth inhibitory activity against SK-MEL-5 human cancer cell line
SF-295 = experiment: Growth inhibitory activity against SF-295 human cancer cell line
A498 = experiment: Growth inhibitory activity against A498 human cancer cell line

Row | Compound | EC50 (P388) [µg/mL] | GI50 (OVCAR-3; read-out: GI50) [µg/mL] | GI50 (KM-20L2; read-out: GI50) [µg/mL] | GI50 (NCI-H460) [µg/mL] | GI50 (SK-MEL-5; read-out: GI50) [µg/mL] | GI50 (SF-295; read-out: GI50) [µg/mL] | GI50 (A498; read-out: GI50) [µg/mL] | GI50 (OVCAR-3) [µg/mL] | GI50 (KM-20L2) [µg/mL] | GI50 (SK-MEL-5) [µg/mL] | GI50 (SF-295) [µg/mL] | GI50 (A498) [µg/mL]
1 | CC[C@H](C)[C@@H]1NC(=O)[C@H](CC(C)C)NC(=O)[C@@H]2CCCN2C(=O)[C@H](C(C)C)NC(=O)[C@H](Cc2ccc(O)cc2)NC(=O)[C@@H]2CCCN2C(=O)[C@@H]2CCCN2C(=O)[C@H](CC(C)C)NC1=O [AXINASTATIN 5] (cyclo(ILPPYVPL)) | 3.5 (≈ 3.92 µM) | 0.3 (≈ 0.336 µM) | 0.7 (≈ 0.784 µM) | 0.5 (≈ 0.56 µM) | 0.5 (≈ 0.56 µM) | 1.6 (≈ 1.79 µM) | 2.3 (≈ 2.58 µM) |  |  |  |  | 
2 | CC[C@H](C)[C@@H]1NC(=O)[C@H](CC(C)C)NC(=O)[C@@H]2CCCN2C(=O)[C@H](C(C)C)NC(=O)[C@H](Cc2ccc(O)cc2)NC(=O)[C@@H]2CCCN2C(=O)[C@@H]2CCCN2C(=O)[C@H]([C@@H](C)CC)NC1=O [Hymenistatin 1] (cyclo(IIPPYVPL)) |  |  |  | 0.3 (≈ 0.336 µM) |  |  |  | 0.04 (≈ 0.0448 µM) | 0.1 (≈ 0.112 µM) | 0.6 (≈ 0.672 µM) | 0.3 (≈ 0.336 µM) | 0.7 (≈ 0.784 µM)
